Results: patent publication US20030185853A1, “Arteriosclerosis-preventing material, immune-activating material, vertebrate that has eaten such materials, and eggs thereof” (Nichimo Co., Ltd., priority 1999, published 2003)

What was measured:
[1] = system: chicks; test: Study 1 on immune-activating capability: number of deaths during rearing of chicks; type: in vivo; details: administered to comparison group after three weeks
Experimental: The object of the study is to investigate the immune-activating capability based on the number of deaths during rearing of chicks.
6,200 young chicks immediately after hatching were grouped into a comparison group and a study group each. The comparison group was provided conventional feed to which Bacillus subtilus (0.1 wt %) was added, and the study group was provided conventional feed to which the product (0.1 wt %) of propagation of lactic acid bacteria (Enterococcus faesium) as useful microorganisms in pulse crops of the present invention was added, and the number of deaths of chicks at one week, two weeks, three weeks, and four weeks of age was compared.

[2] = system: Smooth muscle cells (SMC) derived from the aortic tunica media of stroke-prone spontaneously hypertensive rats (SHRSP); test: Study 2 on arteriosclerosis capability: propagation of smooth muscle cells of the tunica media; type: cell-based; details: 0.1 to 30 μmol/liter, five days; for smooth muscle cell propagating capability, number of cells (Determination A, FIG. 5): 10% FBS; for smooth muscle cell propagating capability, number of cells (Determination B, FIG. 6): with 20 ng/ml PDGF
Experimental: The object of the study is to investigate the effect of the above-described concentrated material of the present invention in terms of preventing propagation of smooth muscle cells of the tunica media of the blood vessels, which is one factor in arteriosclerosis.
1) Smooth muscle cells (SMC) derived from the aortic tunica media of stroke-prone spontaneously hypertensive rats (SHRSP) were prepared by the explant method, and five generations were cultivated.
2) After inoculating 10,000 well SMC in a 24-well plate, the cells were rinsed in the subconfluent state with DMEM medium containing 10% FBS at 37° C. and in the presence of 5% CO2. [The medium] was replaced with DMEM medium containing 0.4% albumin (phenol red-free) and cultivated for 48 hours.
3) Genistein (referred to hereafter as Gen), daidzein (referred to hereafter as Dai), glycitein (referred to hereafter as Gly), and the concentrated material of the present invention were each added to DMEM culture medium (phenol red-free) containing 10% FBS (charcoal-treated) to a concentration of 0.1 to 30 μmol/liter and cultivated for five days. Then, the number of cells was determined with a Coulter counter (referred to hereafter as Determination A).
4) The number of cells was determined by adding 20 ng/ml PDGF in accordance with the method 3) described above (referred to as Determination B).

CC1(C)S[C@@H]2[C@H](NC(=O)[C@H](N)c3ccccc3)C(=O)N2[C@H]1C(=O)O [ampicillin]
increase in deaths of chicks after antibiotic administration [1]: an increase in deaths could not be prevented

O=c1c(-c2ccc(O)cc2)coc2cc(O)ccc12 [Dai, daidzein]
smooth muscle cell propagating capability, number of cells (Determination A, FIG. 5) [2]: cell-reducing effect
smooth muscle cell propagating capability, number of cells (Determination B, FIG. 6) [2]: cell-reducing effect

O=c1c(-c2ccc(O)cc2)coc2cc(O)cc(O)c12 [Gen, Genistein]
smooth muscle cell propagating capability, number of cells (Determination A, FIG. 5) [2]: cell-reducing effect
smooth muscle cell propagating capability, number of cells (Determination B, FIG. 6) [2]: cell-reducing effect
